# Experimental data as given in BindingDB's records for patent US12030880 (Chia Tai Tianqing Pharmaceutical Group, 2024).
# Tests used:
# [1] = molecular target: T1, Bromodomain-containing protein 4 [44-168] (Human, UniProt O60885); assay: In Vitro BRD4 (BD1) Enzymatic Activity Assay
# T1 construct: 44-168
# Protocol: In the present application, IC50 values of the compounds in inhibiting BRD4 (BD1) enzyme binding reaction were determined by homogeneous time resolved fluorescence (HTRF). A compounds was serially diluted 5-fold with 100% DMSO starting from 0.2 mM (7 concentrations in total), and then 2 μL of the compound at each concentration was added to 48 μL of a reaction buffer (20 mM HEPES pH 7.5, 150 mM NaCl, 5 mM DTT, 0.005% Tween 20, and 100 μg/mL BSA) for dilution, and mixed well. 2.5 μL of the resulting mixture was added to a 384-well plate (OptiPlate-384, purchased from PerkinElmer), then 5 μL of GST-BRD4 (BD1, 44-168 aa) (final concentration: 1 nM) was added, and the resulting mixture was centrifuged, and fully mixed. 2.5 μL of a short peptide Biotin-AHA-SGRGK(Ac)GGK(Ac)GLGK(Ac)GGAK(Ac) RHRKV (final concentration: 100 nM) was then added to initiate the reaction (total reaction volume: 10 μL). […] After being incubated in the incubator for another 1 hour, the fluorescence values (excited at 320 nm, emitted light at 665 nm and 620 nm being detected, and the ratio of the two being the enzyme binding signal) were read on Envision (purchased from PerkinElmer).
# [2] = molecular target: T2, Bromodomain-containing protein 4 [349-460] (Homo sapiens, UniProt O60885); assay: In Vitro BRD4 (BD2) Enzymatic Activity Assay
# T2 construct: 349-460
# Protocol: In the present application, IC50 values of the compounds in inhibiting BRD4 (BD2) enzyme binding reaction were determined by homogeneous time resolved fluorescence (HTRF). A compound was serially diluted 5-fold with 100% DMSO starting from 1 mM (7 concentrations in total), and then 2 μL of the compound at each concentration was added to 18 μL of a reaction buffer (20 mM HEPES pH 7.5, 150 mM NaCl, 5 mM DTT, 0.005% Tween 20, and 100 μg/mL BSA) for dilution. After being mixed well, 2 μL of the compound at each concentration was added to 48 μL of the above reaction buffer for dilution, and mixed well (final concentration of the compound in DMSO: 0.1%). 2.5 μL of the resulting mixture was added to a 384-well plate (OptiPlate-384, purchased from PerkinElmer), then 5 μL of GST-BRD4 (BD2, 349-460 aa) (final concentration: 2 nM) was added, and the resulting mixture was centrifuged, and fully mixed. 2.5 μL of a peptide Biotin-AHA-SGRGK(Ac)GGK(Ac)GLGK(Ac)GGAK(Ac) RHRKV (final concentration: 200 nM) was then added to initiate the reaction (total reaction volume: 10 μL). […] After being incubated in the incubator for another 1 hour, the fluorescence values (excited at 320 nm, emitted light at 665 nm and 620 nm being detected, and the ratio of the two being the enzyme binding signal) were read on Envision (purchased from PerkinElmer).
IC50 [1],IC50 [2],Structure (SMILES)
14.7 nM,0.51 nM,"CCNC(=O)c1cc2c(-c3cc(N=S(C)(C)=O)ccc3Oc3ccc(S(C)(=O)=O)cc3)cn(C)c(=O)c2[nH]1 [US12030880, Example 1]"
1.4 nM,0.98 nM,"Cn1cc(-c2cc(N=S(C)(C)=O)ccc2Oc2ccc(C#N)cc2F)c2cc[nH]c2c1=O [US12030880, Example 2]"
